Results on one compound are retold here after US9549941B2, “Compositions and methods for treating hepatitis C virus” (priority 2011, dated 2017).

Test [1] deals with 1b con-1-based chimeric replicon containing 5a NS5B, wild-type. Nature of the test: Transient replicon assay. The test is classed as cell-based. The following applies: Hepatitis C virus, read-out: EC50 WT. The procedure:
(§1) (Lam et al., J. Virology (2011) 85(23): 12334-12342; Lam et al., Antimicrob. Agents Chemother. (2012) 56(6): 3359-3368.) S282T mutations in NS5B were created by site-directed mutagenesis in 1a-H77, 1b con-1, and 2a JFH1 sub-genomic replicons. 1b con-1-based chimeric replicons containing 2b, 3a, 4a, 5a, or 6a NS5B were also engineered to harbor the S282T mutation. […] Relative percentages of mutant and WT were assessed by deep sequencing.
In general terms: Replicon systems follow genome replication, usually without infectious particles.

Test [2] deals with 1a-H77 sub-genomic replicon, wild-type NS5B. Nature of the test: Transient replicon assay. It counts as cell-based. The conditions noted are these: Hepatitis C virus, read-out: EC50 WT. On the procedure: as §1
Test [3] relates to mixture of 50% S282T and 50% WT in GT2a replicons. The test is described as follows: Long-term passaging study with deep sequencing. It counts as cell-based, hepatitis C virus. Set-up: population mutant S282T: concentration or dose not given beside the values. The conditions noted are these: over fifteen days. The source says: In vitro studies have shown that S282T is the primary mutation selected by GS-7977 in HCV genotype 1a, 1b and 2a replicon cells. (Lam et al., J. Virology (2011) 85(23): 12334-12342; Lam et al., Antimicrob. Agents Chemother. (2012) 56(6): 3359-3368.) S282T mutations in NS5B were created by site-directed mutagenesis in 1a-H77, 1b con-1, and 2a JFH1 sub-genomic replicons. 1b con-1-based chimeric replicons containing 2b, 3a, 4a, 5a, or 6a NS5B were also engineered to harbor the S282T mutation. […] Relative percentages of mutant and WT were assessed by deep sequencing.
(See also Han et al., 63rd Annual Meeting of the American Association for the Study of Liver Diseases, Poster 1078, Nov. 11, 2012.)

For test [4], the system named is 1b con-1-based chimeric replicon containing 3a NS5B S282T. The test is classed as cell-based, hepatitis C virus. The conditions noted are these: genotype 3a, S282T from corresponding wild-type. The procedure: as §1
Test [5] concerns 1b con-1-based chimeric replicon containing 4a NS5B S282T. The test is classed as cell-based, hepatitis C virus. The conditions noted are these: genotype 4a, S282T from corresponding wild-type. The procedure: as §1
Test [6] deals with 1b con-1-based chimeric replicon containing 5a NS5B S282T. It counts as cell-based, hepatitis C virus. The conditions noted are these: genotype 5a, S282T from corresponding wild-type. On the procedure: as §1
The subject of test [7] is 1b con-1 sub-genomic replicon, NS5B S282T. It counts as cell-based, hepatitis C virus. The conditions noted are these: genotype 1b, S282T from corresponding wild-type. On the procedure:
as §1

For test [8], the system named is 2a JFH1 sub-genomic replicon, NS5B S282T. The test is classed as cell-based, hepatitis C virus. The following applies: genotype 2a, S282T from corresponding wild-type. The procedure: as §1

A word on the EC50: it is the concentration needed to bring the measured effect to its halfway point. As for `CC(C)OC(=O)[C@H](C)N[P@](=O)(OC[C@H]1O[C@@H](n2ccc(=O)[nH]c2=O)[C@](C)(F)[C@@H]1O)Oc1ccccc1` [GS-7977, (S)-isopropyl 2-(((S)-(((2R,3R,4R,5R)-5-(2,4-dioxo-3,4-dihydropyrimidin-1(2H)-yl)-4-fluoro-3-hydroxy-4-methyltetrahydrofuran-2-yl)methoxy)(phenoxy)phosphoryl)amino)propanoate], the results for the EC50 in test [1] and in test [2] were 9.91 nM and 25.1 nM, respectively. The “population mutant S282T” value in test [3] is 92%. The “Fold Change” value in test [4] amounted to 3.5; in test [5], 6.1; in test [6], 14.35; in test [7], 8.8; in test [8], 2.4.
